{"source": "paper PMC10538940", "about": "“Evaluating Scalable Supervised Learning for Synthesize-on-Demand Chemical Libraries” (Journal of Chemical Information and Modeling, 2023)", "data": [{"molecular_target": "PriA-SSB (Klebsiella pneumoniae subsp. pneumoniae, UniProt A6TGC5)", "sequence (A6TGC5 whole entry)": "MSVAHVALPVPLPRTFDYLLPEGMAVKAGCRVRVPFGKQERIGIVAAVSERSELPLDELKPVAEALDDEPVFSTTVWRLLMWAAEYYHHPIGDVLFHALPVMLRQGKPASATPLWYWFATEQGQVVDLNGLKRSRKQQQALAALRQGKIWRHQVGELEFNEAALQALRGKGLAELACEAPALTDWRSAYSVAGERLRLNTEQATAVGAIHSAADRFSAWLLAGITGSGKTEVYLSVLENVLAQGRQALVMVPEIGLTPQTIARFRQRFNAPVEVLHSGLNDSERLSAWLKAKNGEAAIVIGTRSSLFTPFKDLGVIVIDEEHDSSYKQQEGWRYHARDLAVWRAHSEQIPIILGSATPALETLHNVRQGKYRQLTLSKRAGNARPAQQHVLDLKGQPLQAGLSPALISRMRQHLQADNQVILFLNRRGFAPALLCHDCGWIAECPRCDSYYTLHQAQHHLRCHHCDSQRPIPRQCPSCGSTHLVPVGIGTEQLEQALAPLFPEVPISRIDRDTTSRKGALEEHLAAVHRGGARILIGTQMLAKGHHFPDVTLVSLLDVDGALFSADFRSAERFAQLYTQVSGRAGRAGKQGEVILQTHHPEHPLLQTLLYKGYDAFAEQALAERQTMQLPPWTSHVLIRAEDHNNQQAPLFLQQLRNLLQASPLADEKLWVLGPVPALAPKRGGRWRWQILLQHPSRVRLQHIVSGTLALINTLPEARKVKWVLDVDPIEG", "assay": "PriA-SSB AlphaScreen (AS) dose-response screen of Enamine REAL compounds", "type": "biochemical, Klebsiella pneumonia", "conditions": "not given", "experimental": "(§1) We screened the MLPCN compound library using an AlphaScreen (AS) assay at a single concentration (33.3 μm) following the same protocol previously used to screen the LC1234 libraries.[27],[28] Briefly, library compounds and controls were dispensed from 10 mM DMSO stocks into white 1536-well plates with an Echo 550 acoustic liquid handler. Next, 3 μL of a master mix was added to each well using a Mantis liquid handler with a high-volume silicone chip to yield a final reaction mixture containing 10 mM HEPES-HCl (pH 7.5), 150 mM NaCl, 1 mM MgCl2, 10 mM dithiothreitol, 1 mg/mL bovine serum albumin, 0.01% Triton X-100, 0.1 μM Klebsiella pneumonia PriA (with N-terminal 6×His tag), 0.1 μM Biotinylated-SSBct (N-Biotin-Trp-Met-Asp-Phe-Asp-Asp-Asp-Ile-Pro-Phe-C), 5 μg/mL of both AS acceptor and donor beads, and 33.3 μm of compound. For positive and negative control wells, the compound was replaced with 25 μM SSBct peptide (N-Trp-Met-Asp-Phe-Asp-Asp-Asp-Ile-Pro-Phe-C) or 25 μM ΔFSSBct (N-Trp-Met-Asp-Phe-Asp-Asp-Asp-Ile-Pro-C), respectively. Plates were centrifuged briefly and rocked for an hour at room temperature. Then, the AS signal of each well was measured with a PheraStar plate reader using a 0.1 s settling time, a 0.3 s excitation, a 0.04 s delay, and a 0.6 s integration time. AS signals for each well were adjusted as previously described to reduce the impact of plate and edge effects.[28] We calculated a Z′ factor for each plate[61] and repeated plates with Z′ < 0.5. In addition, we calculated the % inhibition relative to the controls for each compound. We retested compounds with ≥35% inhibition that also passed PAINS filters[62],[63] with the same assay to confirm activity.\n(§2) All 68 compounds were initially screened in four replicates at eight concentrations ranging from 515.6 nm to 66 μm. We defined compounds whose median % inhibition at 33 μm was at least 50%, the same threshold used for the AMS screen, as initial hits. We repeated the dose–response curve screens for two additional rounds of ten compounds each, expanding the range of concentrations tested to improve the quality of the curve fits (Appendix A.9). We defined confirmed hits as those with a dose–response curve in curve class[82] 1.2 or in curve class 2.2 with an IC50 95% upper confidence limit within the tested range of concentrations. We used the Collaborative Drug Discovery Vault software[83] to fit dose–response curves, calculate IC50 values and the 95% upper and lower confidence limits, and define curve classes. […]\n(§3) A.9 Enamine REAL Dose-Response Curves\n(§4) We generated three sets of dose-response curves: eight-point curves with four replicates for all 68 Enamine compounds, 16-point curves with eight replicates for 10 compounds, and another set of 16-point curves with six replicates for 10 compounds. The eight-point dose-response curves started with an initial concentration of 66 µm and progressively divided the concentration in half until reaching 515.6 nm. Both 16-point dose-response curves started with an initial concentration of 100 µm, then 66.7 µm, and then progressively divided the concentration in half until reaching 4.2 nm. All dose-response screens followed the same protocol used for the MLPCN library. The dose-response curve images are available in our […]\n(§5) We generated the 16-point dose-response curves because we were unable to reliably estab-lish IC50 values for some compounds in the eight-point screen. The minimum concentrations tested were not low enough. When reporting IC50 values and bounds in Table 4 we used the screening data from the highest-quality dose-response curve. The second set of 16-point curves were the highest quality because they had 16 concentrations and were unaﬀected by any spatial plate eﬀects. The ﬁrst set of 16-point curves were the next highest quality because they also had 16 concentrations and the most replicates. However, some of the readings at the lowest concentration in these curves were skewed due to assay spatial eﬀects at the plate […]\nedge. […]", "units": {"IC50": "µM"}, "values": [{"compound": "O=C(CN1C(=O)COc2ccc([N+](=O)[O-])cc21)Nc1nc(-c2ccccn2)cs1", "note": "[Z109132782]", "IC50": 12.4}, {"compound": "CC(C)N(C)S(=O)(=O)c1ccc(F)c(C(=O)Nc2nc(-c3ccccn3)cs2)c1", "note": "[Z339655406]", "IC50": 6.8}, {"compound": "Cc1n[nH]c(SCC(=O)Nc2nnc(-c3ccccn3)[nH]2)n1", "note": "[Z1313381195]", "IC50": 15.5}, {"compound": "O=C1CC2(CCOC2)C(C(=O)Nc2nc(-c3ccccn3)cs2)CN1", "note": "(stereo not drawn) [Z3297024656]", "IC50": 12.6}, {"compound": "CC1CC(Nc2nc(-c3ccccn3)nc3c2CCC3)CC(C)N1", "note": "(stereo not drawn) [Z3395547714]", "IC50": 12.1}]}, {"molecular_target": "PriA-SSB (Klebsiella pneumoniae subsp. pneumoniae, UniProt A6TGC5)", "assay": "PriA-SSB AlphaScreen (AS) dose-response screen of Enamine REAL compounds", "type": "biochemical, Klebsiella pneumonia", "conditions": "eight concentrations 515.6 nm to 66 μm; includes some initial hits not confirmed", "experimental": "as §1, §2, §3, §4, §5\nedge. […]", "values": [{"compound": "O=C(Cc1ccc(S(=O)(=O)N2CCOCC2)s1)Nc1nc(-c2ccccn2)cs1", "note": "[Z29467739]", "Enamine Inactive (not confirmed as hit in full dose-response curves)": "Inactive"}, {"compound": "Cc1cccc2nc(CSc3cccc4cccnc34)cn12", "note": "[Z56788250]", "Enamine Inactive (not confirmed as hit in full dose-response curves)": "Inactive"}, {"compound": "CCOC(=O)c1c(C)[nH]c(C(=O)CSc2cccc3cccnc23)c1C", "note": "[Z71173293]", "Enamine Inactive (not confirmed as hit in full dose-response curves)": "Inactive"}, {"compound": "Cc1ccc(-n2nc(C)cc2NC(=O)CSc2cccc3cccnc23)cc1", "note": "[Z71174619]", "Enamine Inactive (not confirmed as hit in full dose-response curves)": "Inactive"}, {"compound": "O=c1[nH]ncc(N/N=C/c2ccccn2)c1Cl", "note": "[Z114886052]", "Enamine Inactive (not confirmed as hit in full dose-response curves)": "Inactive"}, {"compound": "O=C(CSc1cccc2cccnc12)Nc1cccc(N2CCCC2=O)c1", "note": "[Z202503096]", "Enamine Inactive (not confirmed as hit in full dose-response curves)": "Inactive"}, {"compound": "CCOC(=O)c1[nH]c(C)c(C(=O)CSc2cccc3cccnc23)c1C", "note": "[Z225905608]", "Enamine Inactive (not confirmed as hit in full dose-response curves)": "Inactive"}, {"compound": "c1cnc2c(Cn3ccnc3)cccc2c1", "note": "[Z241926076]", "Enamine Inactive (not confirmed as hit in full dose-response curves)": "Inactive"}, {"compound": "O=C(O)CSc1ccc([N+](=O)[O-])c2cccnc12", "note": "[Z285779920]", "Enamine Inactive (not confirmed as hit in full dose-response curves)": "Inactive"}, {"compound": "O=[N+]([O-])c1cc(Cl)cc(C=Nc2ccc(Cl)c3ncccc23)c1O", "note": "[Z314947084]", "Enamine Inactive (not confirmed as hit in full dose-response curves)": "Inactive"}, {"compound": "O=[N+]([O-])c1ncn(Cc2cccc3cccnc23)n1", "note": "[Z666250890]", "Enamine Inactive (not confirmed as hit in full dose-response curves)": "Inactive"}, {"compound": "Fc1cccc2[nH]c(-c3ccccn3)nc12", "note": "[Z666485712]", "Enamine Inactive (not confirmed as hit in full dose-response curves)": "Inactive"}, {"compound": "Clc1cccnc1NN=Cc1ccccn1", "note": "[Z734817070]", "Enamine Inactive (not confirmed as hit in full dose-response curves)": "Inactive"}, {"compound": "c1cnc2c(SCCn3cncn3)cccc2c1", "note": "[Z1116571364]", "Enamine Inactive (not confirmed as hit in full dose-response curves)": "Inactive"}, {"compound": "Nc1ncc(-c2ccccn2)cn1", "note": "[Z1255380138]", "Enamine Inactive (not confirmed as hit in full dose-response curves)": "Inactive"}, {"compound": "O=c1[nH]c(NN=Cc2ccccn2)nc2ccccc12", "note": "[Z1407899729]", "Enamine Inactive (not confirmed as hit in full dose-response curves)": "Inactive"}, {"compound": "O=C(O)c1cc(C(=O)N2CCS(=O)(=O)CC2)ccn1", "note": "[Z1443864314]", "Enamine Inactive (not confirmed as hit in full dose-response curves)": "Inactive"}, {"compound": "c1cncc(CSCc2cccc3cccnc23)c1", "note": "[Z2146195633]", "Enamine Inactive (not confirmed as hit in full dose-response curves)": "Inactive"}, {"compound": "CCc1nc(C)c(CSc2cccc3cccnc23)o1", "note": "[Z2273856428]", "Enamine Inactive (not confirmed as hit in full dose-response curves)": "Inactive"}, {"compound": "Cc1nn(C(C)C)cc1-c1ccc2cccnc2c1C", "note": "[Z2618185084]", "Enamine Inactive (not confirmed as hit in full dose-response curves)": "Inactive"}, {"compound": "CC(C)c1ncc(-c2cccc3cccnc23)n1C", "note": "[Z2739840324]", "Enamine Inactive (not confirmed as hit in full dose-response curves)": "Inactive"}, {"compound": "CC(C)(C)c1ncc(-c2cccc3cccnc23)o1", "note": "[Z2998111045]", "Enamine Inactive (not confirmed as hit in full dose-response curves)": "Inactive"}, {"compound": "O=C(Nc1nc(-c2ccccn2)cs1)C1(C2CCCCO2)CCCO1", "note": "(stereo not drawn) [Z3075781550]", "Enamine Inactive (not confirmed as hit in full dose-response curves)": "Inactive"}, {"compound": "Cc1cc(-c2ccccn2)n[nH]1", "note": "[Z3225506284]", "Enamine Inactive (not confirmed as hit in full dose-response curves)": "Inactive"}, {"compound": "C1=C(c2cccc3cccnc23)CCNC1", "note": "[Z3238971184]", "Enamine Inactive (not confirmed as hit in full dose-response curves)": "Inactive"}, {"compound": "c1ccc(-c2n[nH]c3ccccc23)nc1", "note": "[Z3242476057]", "Enamine Inactive (not confirmed as hit in full dose-response curves)": "Inactive"}, {"compound": "c1ccc(-c2csc(NC3COC4(CCC4)C3)n2)nc1", "note": "(stereo not drawn) [Z3295148399]", "Enamine Inactive (not confirmed as hit in full dose-response curves)": "Inactive"}, {"compound": "c1ccc(-c2cnc3n2CCC3)nc1", "note": "[Z3347084877]", "Enamine Inactive (not confirmed as hit in full dose-response curves)": "Inactive"}, {"compound": "c1cc2c(c(-c3cccc4cccnc34)c1)CNC2", "note": "[Z3484513235]", "Enamine Inactive (not confirmed as hit in full dose-response curves)": "Inactive"}, {"compound": "OCCCN(CCO)c1ccc2ccc3cccnc3c2n1", "note": "[Z3557694708]", "Enamine Inactive (not confirmed as hit in full dose-response curves)": "Inactive"}, {"compound": "CN(C)CCN(C)c1ccc2ccc3cccnc3c2n1", "note": "[Z3557781825]", "Enamine Inactive (not confirmed as hit in full dose-response curves)": "Inactive"}, {"compound": "COC(C)COc1ccc2ccc3cccnc3c2n1", "note": "(stereo not drawn) [Z3634004206]", "Enamine Inactive (not confirmed as hit in full dose-response curves)": "Inactive"}, {"compound": "CC1(C)CC(CSc2cccc3cccnc23)=NO1", "note": "[Z3638513333]", "Enamine Inactive (not confirmed as hit in full dose-response curves)": "Inactive"}, {"compound": "Clc1ccc(CN2CCOCCOCC2)c2ncccc12", "note": "[Z3652859018]", "Enamine Inactive (not confirmed as hit in full dose-response curves)": "Inactive"}]}]}
